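The compound was tested at five concentrations on cells cultured in 96-well plates, with a 48-hour exposure period. GI50: concentration for 50% inhibition of growth. TGI is the concentration that stops growth completely.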
Columns and labels:
Test in all cases: inhibition of tumour cell growth, NCI panel, 48 h
ACHN renal = test system: ACHN renal
HCT-116 colon = test system: HCT-116 colon
HCT-15 colon = test system: HCT-15 colon
HT29 colon = test system: HT29 colon
OVCAR-5 ovarian = test system: OVCAR-5 ovarian
PC-3 prostate = test system: PC-3 prostate
SF-295 CNS = test system: SF-295 CNS
T-47D breast = test system: T-47D breast
U251 CNS = test system: U251 CNS
MALME-3M melanoma = test system: MALME-3M melanoma

Structure (SMILES) | TGI (ACHN renal) [µM] | TGI (HCT-116 colon) [µM] | TGI (HCT-15 colon) [µM] | TGI (HT29 colon) [µM] | TGI (OVCAR-5 ovarian) [µM] | TGI (PC-3 prostate) [µM] | TGI (SF-295 CNS) [µM] | TGI (T-47D breast) [µM] | TGI (U251 CNS) [µM] | TGI (MALME-3M melanoma) [µM] | GI50 (SF-295 CNS) [µM] | GI50 (T-47D breast) [µM]
O=[N+]([O-])c1ccccc1N=Nc1c(O)[nH]c2ccccc12 | 23.7 | > 54.2 | > 100 | > 100 | > 100 | > 100 | > 100 | > 100 | > 58.2 | – | – | –
[Cu+2].[O-]c1ccc2ccccc2c1N=Nc1ccccc1.[O-]c1ccc2ccccc2c1N=Nc1ccccc1 | > 100 | > 100 | > 100 | > 100 | > 100 | > 100 | > 100 | > 100 | > 100 | > 100 | > 100 | > 100
COc1cc(-c2[nH]ccc2Cl)oc1C1=C2N=C3C=C2C(C(C)C)C1CCCCCCCC3 (configuration not stated) | 3.12 | 0.992 | 1.86 | 1.11 | 2.05 | 1.37 | 2.39 | – | 1.89 | 2.49 | – | –
CC(=O)OC12c3ccccc3C1CCCCCC21OCCCO1 (configuration not stated) | > 100 | > 100 | > 100 | > 100 | > 100 | – | > 100 | – | > 100 | – | – | –
Cc1ccc(C)c(NC(=O)c2cc(-c3ccc([N+](=O)[O-])cc3)nc(N)n2)c1 | > 100 | > 100 | > 100 | > 100 | > 100 | – | > 100 | – | > 100 | > 100 | – | –
CCOc1ccccc1/C=C1\NC(=O)N(/C=C2\C(=O)Oc3ccccc3C2=O)C1=O | > 100 | > 100 | > 100 | > 100 | > 100 | > 100 | > 100 | – | > 100 | – | – | –
O=c1/c(=C/c2ccc(Cl)cc2Cl)sc2nc3ccccc3n12 | > 100 | > 100 | > 100 | > 100 | > 100 | – | > 100 | – | > 100 | > 100 | – | –
CC(NS(C)(=O)=O)c1ccccc1 (configuration not stated) | – | > 100 | > 100 | > 100 | > 100 | > 100 | > 100 | > 100 | > 100 | > 100 | – | –
Cn1c(CCC#N)nc2ccc(Br)cc2c1=O | > 100 | – | > 100 | > 100 | > 100 | – | > 100 | – | > 100 | > 100 | – | –
COc1ccc(C(c2ccc(C(C)C)cc(=O)c2O)c2c(O)cc3oc(-c4ccccc4)cc(=O)c3c2O)cc1 (configuration not stated) | 45.6 | – | 43.6 | 62.9 | – | – | 16.7 | – | 22.3 | – | – | –
CCOC(=O)/N=C(\N)SCc1ccccc1 | > 100 | > 100 | > 100 | > 100 | > 100 | – | > 100 | – | > 100 | > 100 | – | –
COc1cc2c(c(OC)c1OC)-c1[nH]ncc1CC2 | > 100 | > 100 | > 100 | > 100 | > 100 | – | > 100 | – | > 100 | > 100 | – | –
COc1cc(/C=C/C(C)=O)ccc1OP(=O)(O)O | > 100 | > 100 | > 100 | > 100 | > 100 | > 100 | > 100 | – | > 100 | > 100 | – | –

Source: PubChem BioAssay (NCI)
